Assays:
[1] = target: glutathione-S-transferase (GST, GSTP1); test: in vitro enzyme activity assay (GSH/CDNB conjugation, absorbance at […] nm); type: biochemical
[2] = target: glutathione reductase-1 (GSR, GSR1); test: in vitro enzyme activity assay (GSSG/NADPH, absorbance at […] nm); type: biochemical

- IC50 [1]: 95 µM
- IC50 [2]: 70 µM
SMILES: O=C(O)/C=C/c1ccc(O)c(O)c1 [CA, caffeic acid]
